This is an account of results in ChEMBL document CHEMBL1135545, “Conformational memories and the endocannabinoid binding site at the cannabinoid CB1 receptor” (J Med Chem, 2002).

Bounds are passed on as bounds.

The target of the experiment is Cannabinoid receptor 1 (Homo sapiens, UniProt P21554). Nature of the experiment: Compound was evaluated for its binding affinity towards Cannabinoid receptor 1 [Inactive form(R) of CB1 receptor].
Sequence of Cannabinoid receptor 1 (P21554 whole entry): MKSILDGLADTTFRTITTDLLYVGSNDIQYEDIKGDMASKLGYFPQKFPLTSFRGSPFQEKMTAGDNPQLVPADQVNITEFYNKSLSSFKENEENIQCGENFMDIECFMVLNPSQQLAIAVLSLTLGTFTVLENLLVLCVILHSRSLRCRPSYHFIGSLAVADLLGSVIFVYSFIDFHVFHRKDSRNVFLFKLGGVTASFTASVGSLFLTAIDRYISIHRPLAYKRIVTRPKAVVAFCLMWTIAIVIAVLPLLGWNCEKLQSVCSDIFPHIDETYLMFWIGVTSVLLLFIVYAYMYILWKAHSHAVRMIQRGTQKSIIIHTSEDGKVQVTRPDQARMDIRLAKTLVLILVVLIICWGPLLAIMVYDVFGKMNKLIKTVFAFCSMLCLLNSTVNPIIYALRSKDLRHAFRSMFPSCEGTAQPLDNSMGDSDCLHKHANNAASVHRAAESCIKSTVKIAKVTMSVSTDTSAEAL
The compound `CCCCC/C=C\C/C=C\C/C=C\C/C=C\CC[C@H](C)C(=O)N[C@H](C)CO` displayed a Ki of 185 nM.

In turn, `CCCCC/C=C\C/C=C\C/C=C\C/C=C\CC[C@@H](C)C(=O)N[C@H](C)CO` displayed a Ki of 7.42 nM. In the case of `CCCCC/C=C\C/C=C\C/C=C\C/C=C\CC[C@H](C)C(=O)N[C@@H](C)CO` it was 389 nM; in that of `CCCCC/C=C\C/C=C\CCCCCCCCCC(=O)NCCO`, above 1500 nM; in that of `CCCCC/C=C\C/C=C\C/C=C\C/C=C\CCCCCC(=O)NCCO`, 34.4 nM.

The compound `CCCCC/C=C\C/C=C\C/C=C\C/C=C\CC[C@@H](C)C(=O)N[C@@H](C)CO` showed a Ki of 233 nM. This Ki is about 6.8-fold higher than that of the compound before.

Usually Ki stands for a measure of affinity in units of concentration, obtained from inhibition or displacement. Higher therefore signals weaker binding.
